From patent US6365625B1, “Compound for inhibiting HIV infectivity” (Procept, Inc., priority 1993, dated 2002)
Converted amounts (≈) assume the structure as drawn. Where two headings read alike, the source gives them in different places.

Legend:
HIV-1 (ADA) = test: microbe, parasite or virus in culture; format: cell-based; conditions: Human immunodeficiency virus 1, Monocyte, monocytes
[1] = system: gp120-mediated syncytium formation; test: Inhibition of gp120-mediated syncytium formation (HL2/3 and HeLa-CD4-LTR-β-gal cells); conditions: 48 hours; PIC 024.4 based on 100% polymer by weight
Description: The effect of test compound on syncytium formation was evaluated using an assay developed by Dr. George Pavlakis and coworkers (Ciminale, V. et al., AIDS Res. Hum. Retro-viruses 6:1281-1287 (1990)). […] The cultures were then incubated in the presence of drug for 48 hours at 37° C., fixed and stained with X-gal. Blue syncytia were counted using an inverted microscope, and percent inhibition and IC50 values were calculated.

HIV-1 (JR-CSF) = format: cell-based
HIV-1 14aPre = test: Drug combination studies, neutralization of HIV-1 14aPre; format: cell-based
HIV-1, strain HTLV-IIIB = format: cell-based; conditions: CEM-T4 cells, day 8; PIC 024.4 30% polymer by weight
Description: Dilutions were prepared in culture medium, and the compound was tested at concentrations ranging from 100 μg/ml to 0.003 μg/ml in half-log10 dilutions.
The assay was done in 96-well tissue culture plates using the CEM-T4 human T-lymphocyte cell line. The culture medium used was RPMI-1640 medium containing 25 mM N-[2-Hydroxyethyl]piperazine-n^1-[2-ethanesulfonic acid] (HEPES, Sigma Chemical Co.) and 2 mM L-glutamine, and supplemented with 10% fetal bovine serum, 2 mM L-glutamine, 50 units of penicillin G per ml, and 50 μg streptomycin sulfate per ml. CEM-T4 cells were treated with polybrene at a concentration of 2 μg/ml, and a 130 μl volume of cells (1×10^4 cells) was dispensed into each well. To one assay plate for each drug a 50 μl volume of each drug dilution (prepared as a 4×concentration) was added to five wells of cells, and the cells were incubated at 37° C. for two hours. […]
On the eighth day post-infection, the cells in each well were suspended and a 50-μl sample of each cell suspension was transferred to a new 96-well plate for use in the following assay. […] The absorbance at 590 nm was determined for each sample using a Molecular Devices Vmax microplate reader. […] When a dose-dependent effect for either CPE-inhibition or toxicity was seen, values for the 50% effective dose were calculated using the dose-effect analysis software of Chou and Chou (Elsevier-Biosoft).

[2] = biological target: T1, OKT4 binding to recombinant sCD4 (Homo sapiens, UniProt P01730); test: Inhibition of monoclonal antibody OKT4 binding to CD4 (ELISA); conditions: antibody 30 ng/ml
T1 construct: Plates coated with recombinant, soluble CD4 were treated with antibody
Description: (§1) A panel of related ELISA systems was used to evaluate the effect of test compounds on the binding of various monoclonal antibodies to recombinant sCD4 absorbed on plastic. Two of these antibodies, Leu3A and 19Thy, are directed against gp120 binding site on CD4. […] The ELISA formats were similar to those used to measure gp120 binding to CD4. Plates coated with recombinant, soluble CD4 were treated with antibody (30 ng/ml) and serial dilutions of drug. After incubation and washing, bound antibody was detected using an appropriate isotype-specific anti-immunoglobulin alkaline phosphatase conjugate.

[3] = biological target: T2, 19Thy binding to recombinant sCD4 (Homo sapiens, UniProt P01730); test: Inhibition of monoclonal antibody 19Thy binding to CD4 (ELISA); conditions: antibody 30 ng/ml; read-out: IC50 MAb binding inhibition, 19Thy (converted)
T2 construct: Plates coated with recombinant, soluble CD4 were treated with antibody
Description: as §1

gp120/CD4 = biological target: T3, gp120/CD4 (Homo sapiens, UniProt P01730); test: biochemical; format: binding
T3 construct: recombinant, soluble four-domain CD4 (sCD4) expressed in insect cells; host or cells: insect cells (sCD4)
Description: Polystyrene 96-well microtiter plates were treated with a 1 μg/ml solution of recombinant, soluble four-domain CD4 (sCD4) expressed in insect cells (100 μl/well) and allowed to incubate for two hours at room temperature. Plates were blocked for two hours at 4° C. with phosphate-buffered saline (PBS) containing 0.05% Tween-20 and 10 mg/ml bovine serum albumin (PBSTB, 200 μl/well), and then washed five times with PBS containing 0.05% Tween-20. Fifty microliters of 60 ng/ml recombinant gp120 (IIIB isolate) and 50 μl of each drug dilution in PBSTB were added to duplicate wells, and the plate was incubated overnight at 4° C. The plate was then washed five times with PBST and treated with a 210 μg/ml solution of monoclonal antibody NEA 9205 (100 gp120-III/well). This antibody recognizes the V3 loop region of gp120-IIIB. After incubation for 2 hours at 4° C., the plate was washed five times with PBST and treated with an anti-mouse IgGl antibody conjugated to alkaline phosphatase. After an additional incubation for 1 hour at 4° C., the plate was washed five times with PBST, treated with a p-nitrophenyl phosphate substrate solution, incubated for about 30 minutes at room temperature, and monitored for color development at 405 nm. […]

[4] = biological target: T4, Leu3A binding to recombinant sCD4 (Homo sapiens, UniProt P01730); test: Inhibition of monoclonal antibody Leu3A binding to CD4 (ELISA); conditions: antibody 30 ng/ml; read-out: IC50 MAb binding inhibition, Leu3A (converted)
T4 construct: Plates coated with recombinant, soluble CD4 were treated with antibody
Description: as §1

monocytotropic isolates = conditions: cited from earlier work
[5] = biological target: T5, gp120 binding to CD4 receptor on CEM cells (Homo sapiens, UniProt P01730); format: cell-based; conditions: recombinant gp120 (IIIB) 10 nM; PIC 024.4 based on 100% polymer by weight
T5 construct: the CD4 receptor expressed on the surface of lymphocytic cells; endogenous in cells; host or cells: CEM cells
Description: This assay was used to measure the ability of test compounds to inhibit the binding of recombinant gp120 to the CD4 receptor expressed on the surface of lymphocytic cells. Cells of the CEM line (a CD4+ human T cell leukemia line) were suspended at 3×10^6 cells/ml in RPMI 1640 medium supplemented with 10% fetal bovine serum (FBS) containing 0.002% sodium azide, and 100 μl was aliquoted to individual assay tubes. Serial dilutions of test compound in water were added (10 μl/tube) and the tubes incubated for 2 hours at 25° C. Next, recombinant gp120 (IIIB isolate) diluted in RPMI 1640 buffer was added to a final concentration of 10 nM (1.2 μg/ml) and the tubes incubated overnight at 37° C. Cells were then washed thoroughly with PBS containing 10% FBS and 0.01% sodium azide. V3-specific monoclonal antibody NEA9284 was added to a concentration of 1 μg/ml and incubated for 30 minutes on ice. The cells were washed thoroughly as before and stained with fluorescein-labeled goat anti-mouse immunoglobulin for 30 minutes on ice. The washed cells were analyzed for mean fluorescence on a FACScan™ flow cytometer (Becton Dickinson). Percent inhibition of fluorescence was determined relative to cells that were not treated with drug.

IIIB = conditions: cited from earlier work
gp120 (SF2 isolate)/sCD4 = biological target: T6, gp120 (SF2 isolate)/sCD4 (Homo sapiens, UniProt P01730); format: binding
T6 construct: recombinant sCD4 was immobilized to the sensor surface
Excerpt: This assay provided a direct measure of the ability of test compounds to inhibit the gp120/CD4 binding interaction. The BIAcore™ biosensor (Pharmacia Biosensor) allows for real-time interaction analysis without the need for labeling (Jonsson et al., BioTechniques 11:620-627 (1991); Malmquist, Nature 361:186-198 (1993)). Its operation is based on optical surface plasmon resonance (SPR) for detecting small changes in the refractive index on the surface of a thin gold film coated with a dextran matrix to which one ligand is immobilized. In the experiments described here, recombinant sCD4 was immobilized to the sensor surface by a standard amine coupling chemistry. Recombinant gp120 (SF2 isolate), alone or in the presence of test compound, was passed over the surface, and binding monitored by a change in “resonance units” (RU's). Percent inhibition was determined relative to RU levels observed in the absence of drug. A correction was made to account for the mass of the test article.

[6] = biological target: T7, gp120 binding to CD4 receptor on lymphocytes in whole blood (Homo sapiens, UniProt P01730); format: cell-based; conditions: gp120-biotin 10 nM
T7 construct: the CD4 receptor expressed on the surface of lymphocytes in whole blood; from tissue; host or cells: freshly collected anticoagulated whole blood from normal donors
Description: This assay was used to measure the ability of test compounds to inhibit the binding of recombinant gp120 to the CD4 receptor expressed on the surface of lymphocytes in whole blood. Freshly collected, anticoagulated whole blood from normal donors (100 μl per tube) was treated with test compound and incubated for 2 hours at room temperature. The tubes were then treated with gp120-biotin (American Bio-Technology Products) to a final concentration of 10 nM, and incubated for an additional 3 hours at room temperature. Cells were then stained with fluorescein-labeled streptavidin (Becton Dickinson), treated with lysis buffer (Becton Dickinson), and washed with PBS containing 0.1% azide. Cells were then subjected to flow cytometric analysis on a FACScan™ flow cytometer (Becton Dickinson) and the mean fluorescence for the lymphocyte population was measured. Percent inhibition of fluorescence was determined relative to cells that were not treated with drug.

## Cc1cn([C@H]2C[C@H](N=[N+]=[N-])[C@@H](CO)O2)c(=O)[nH]c1=O [AZT, zidovudine]
HIV-1 (ADA); 168 h, read-out: EC50, Day 7
  EC50: 0.005 µg/mL (≈ 0.0187 µM)
HIV-1 (ADA); 168 h, read-out: EC90, Day 7
  EC90: 0.02 µg/mL (≈ 0.0748 µM)
HIV-1 (ADA); 336 h, read-out: EC50, Day 14
  EC50: 0.003 µg/mL (≈ 0.0112 µM)
HIV-1 (ADA); 336 h, read-out: EC90, Day 14
  EC90: 0.01 µg/mL (≈ 0.0374 µM)
[1]
  IC50 syncytium inhibition (HL2/3): inactive
HIV-1 (JR-CSF); 0.004-50 μM, drug added 2 hours prior to infection
  p24 levels: substantially reduced
HIV-1 (JR-CSF); PHA blasts, PIC 024.4 30% polymer by weight
  Antiviral Activity ID50, JR-CSF: 0.001 µg/mL
HIV-1 14aPre; AZT 0.005 μM alone
  Table 8 readout of HIV-1 14aPre growth: 25
HIV-1 14aPre; AZT 0.01 μM alone
  Table 8 readout of HIV-1 14aPre growth: 17.5
HIV-1 14aPre; AZT 0.02 μM alone
  Table 8 readout of HIV-1 14aPre growth: 9.8

## OC[C@@H]1CC[C@H](n2cnc3c(O)ncnc32)O1 [ddI, 2′,3′-Dideoxyinosine]
HIV-1, strain HTLV-IIIB
  Antiviral Activity ID50, IIIB: 1.2 µg/mL
HIV-1 14aPre; DDI 1.25 μM alone
  Table 8 readout of HIV-1 14aPre growth: 36.5
HIV-1 14aPre; DDI 5 μM alone
  Table 8 readout of HIV-1 14aPre growth: 11.2
HIV-1 14aPre; DDI 10 μM alone
  Table 8 readout of HIV-1 14aPre growth: 1.2

## O=C(O)C1=CC(=C(c2ccc(O)c(C(=O)O)c2)c2ccc(O)c(C(=O)O)c2)C=CC1=O [Aurintricarboxylic acid]
[2]
  IC50 MAb binding inhibition, OKT4: did not affect
[3]
  IC50: 206 µM
gp120/CD4
  IC50: ~2.37 µM
[4]
  IC50: 294 µM

## dextran sulfate
[1]
  IC50 syncytium inhibition (HL2/3): 0.9 µg/mL
Monocytotropic isolates
  activity against many monocytotropic isolates: inactive
[5]
  IC50 gp120/CEM binding inhibition: 23 µg/mL
gp120/CD4; recombinant gp120 IIIB, recombinant sCD4, PIC 024.4 based on 100% polymer by weight
  IC50 gp120/CD4 binding inhibition (ELISA): inactive
IIIB; AHT 8
  Antiviral Activity ID50, IIIB: 8 µg/mL
IIIB; TM 11
  Antiviral Activity ID50, IIIB: 4 µg/mL
gp120 (SF2 isolate)/sCD4
  IC50 BIAcore inhibition: inactive
[6]
  IC50 gp120/whole blood binding inhibition: ≥ 1000 µg/mL
